The test system of data set [1] is A/Brisbane/10/2007 (H3N2). The conditions noted are these: read-out: EC50, cytopathic effect inhibition. (Protection from cytopathic effect is a common read-out in antiviral testing.)
Data set [2] deals with A/WSN/33 (H1N1) influenza virus. The following applies: mouse, in vivo, po.
For data set [3] the following is noted: male (rat, dog), human, microsomes, 1 h.

As usually defined, the EC50 is the concentration giving half of the maximal effect.

In the case of `CCC(CC)O[C@@H]1C=C(P(=O)(O)O)C[C@H](N)[C@H]1NC(C)=O` [3a, tamiphosphor], the half-maximal effective concentration (EC50) in data set [1] is > 10 µM. `CCOP(=O)(OCC)C1=C[C@@H](OC(CC)CC)[C@H](NC(C)=O)[C@@H](N)C1` [3b, tamiphosphor diethyl ester]: in data set [2], the “protection of infected mice” value is reported as “No significant protection”. For the molecule `CCOP(=O)(O)C1=C[C@@H](OC(CC)CC)[C@H](NC(C)=O)[C@@H](N)C1` [3c, tamiphosphor monoethyl ester], in data set [1], the concentration giving a half-maximal response (EC50) was > 10 µM. Same read-out and setting: then `CCC(CC)O[C@@H]1C=C(P(=O)(O)O)C[C@H](NC(=N)N)[C@H]1NC(C)=O` [4a, guanidino-tamiphosphor], with > 10 µM; and `CCOP(=O)(O)C1=C[C@@H](OC(CC)CC)[C@H](NC(C)=O)[C@@H](NC(=N)N)C1` [4c, guanidino-tamiphosphor monoethyl ester], with > 10 µM. As for `Cc1ncc2n1-c1ccc(Cl)cc1C(c1ccccc1F)=NC2` [midazolam], the metabolized in data set [3] was 65–100%.

On to `C[C@]12CC[C@H]3[C@@H](CCC4=CC(=O)CC[C@@]43C)[C@@H]1CC[C@@H]2O` [testosterone], for which the metabolized in data set [3] is reported as 65–100%.

The values are drawn from paper PMC3492761 (Journal of medicinal chemistry, 2012).
